Data taken from patent US20250312352A1, “GLP-1R MODULATING COMPOUNDS” (Gilead Sciences, Inc., priority 2021, published 2025).

Target: T1, GLP-1R (Homo sapiens, UniProt P43220)
T1 construct: host or cells: CHO cells
Assay: GLP-1R activation cAMP assay (Assay 1 or Assay 2)
Format: cell-based
Settings: cAMP increase in CHO cells stably expressing GLP-1R; compounds run on one of the two cAMP assays
Outline: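 EC50 values come from a sigmoidal fit of HTRF-detected cAMP rise versus log agonist concentration. GLP-1R-expressing CHO cells, equilibrated 1 h at 37 °C in HBSS with HEPES and BSA, received a 10-point compound dose series for 30 min before detection.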

T1 sequence (P43220 24-463): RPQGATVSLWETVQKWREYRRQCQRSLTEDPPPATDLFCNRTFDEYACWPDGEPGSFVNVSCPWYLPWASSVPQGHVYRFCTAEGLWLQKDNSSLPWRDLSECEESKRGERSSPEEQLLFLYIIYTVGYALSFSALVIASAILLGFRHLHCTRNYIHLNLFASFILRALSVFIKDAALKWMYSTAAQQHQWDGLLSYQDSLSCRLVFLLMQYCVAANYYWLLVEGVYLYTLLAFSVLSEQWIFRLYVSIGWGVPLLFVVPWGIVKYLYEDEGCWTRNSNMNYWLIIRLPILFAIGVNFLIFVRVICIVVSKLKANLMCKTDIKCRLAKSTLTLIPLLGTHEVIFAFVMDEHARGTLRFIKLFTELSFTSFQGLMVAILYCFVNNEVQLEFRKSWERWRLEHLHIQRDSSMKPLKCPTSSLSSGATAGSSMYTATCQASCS

SMILES	EC50 [nM]
CCOc1nnc(COc2cccc(-c3cc(F)c(Cc4nc5c(F)cc(C(=O)O)cc5n4C[C@@H]4CCO4)cc3F)n2)s1 [Example 312, (S)-2-(4-(6-((5-ethoxy-1,3,4-thiadiazol-2-yl)methoxy)pyridin-2-yl)-2,5-difluorobenzyl)-4-fluoro-1-(oxetan-2-ylmethyl)-1H-benzo[d]imidazole-6-carboxylic acid]	0.044
CCOC(=O)N1Cc2ccc(COc3cccc(-c4cc(F)c(Cc5nc6ccc(C(=O)O)cc6n5C[C@@H]5CCO5)cc4F)n3)cc2C1 [Example 435, (S)-2-(4-(6-((2-(ethoxycarbonyl)isoindolin-5-yl)methoxy)pyridin-2-yl)-2,5-difluorobenzyl)-1-(oxetan-2-ylmethyl)-1H-benzo[d]imidazole-6-carboxylic acid]	0.427
COc1nnc(COc2cccc(-c3cc(F)c(Cc4nc5ccc(C(=O)O)cc5n4CC4(C(F)F)CC4)cc3F)n2)s1 [Example 276, 2-(2,5-difluoro-4-(6-((5-methoxy-1,3,4-thiadiazol-2-yl)methoxy)pyridin-2-yl)benzyl)-1-((1-(difluoromethyl)cyclopropyl)methyl)-1H-benzo[d]imidazole-6-carboxylic acid]	1.31
O=C(O)c1ccc2nc(Cc3cc(F)c(-c4cccc(OCc5ccn(-c6ccc(F)cc6)n5)n4)cc3F)n(C[C@@H]3CCO3)c2c1 [Example 62, (S)-2-(2,5-difluoro-4-(6-((1-(4-fluorophenyl)-1H-pyrazol-3-yl)methoxy)pyridin-2-yl)benzyl)-1-(oxetan-2-ylmethyl)-1H-benzo[d]imidazole-6-carboxylic acid]	1.98
O=C(O)c1ccc2nc(Cc3cc(F)c(-c4cccc(OCc5ccn(C6CC6)n5)n4)cc3F)n(C[C@@H]3CCO3)c2c1 [Example 6, (S)-2-(4-(6-((1-cyclopropyl-1H-pyrazol-3-yl)methoxy)pyridin-2-yl)-2,5-difluorobenzyl)-1-(oxetan-2-ylmethyl)-1H-benzo[d]imidazole-6-carboxylic acid]	3.09
O=C(O)c1ccc2nc(Cc3cc(F)c(-c4cccc(OCc5cc(C(F)(F)F)on5)n4)cc3F)n(C[C@@H]3CCO3)c2c1 [Example 24, (S)-2-(2,5-difluoro-4-(6-((5-(trifluoromethyl)isoxazol-3-yl)methoxy)pyridin-2-yl)benzyl)-1-(oxetan-2-ylmethyl)-1H-benzo[d]imidazole-6-carboxylic acid]	1.54
Cc1cc(Cc2nc3ccc(C(=O)O)cc3n2[C@@H]2COCC2(C)C)c(F)cc1-c1cccc(OCc2ncc(Cl)s2)n1 [Example 257, (S)-2-(4-(6-((5-chlorothiazol-2-yl)methoxy)pyridin-2-yl)-2-fluoro-5-methylbenzyl)-1-(4,4-dimethyltetrahydrofuran-3-yl)-1H-benzo[d]imidazole-6-carboxylic acid]	0.583
N#CCn1nccc1COc1cccc(-c2cc(F)c(Cc3nc4ccc(C(=O)O)cc4n3C[C@@H]3CCO3)cc2F)n1 [Example 239, (S)-2-(4-(6-((1-(cyanomethyl)-1H-pyrazol-5-yl)methoxy)pyridin-2-yl)-2,5-difluorobenzyl)-1-(oxetan-2-ylmethyl)-1H-benzo[d]imidazole-6-carboxylic acid]	447
Cc1cc(Cc2nc3ccc(C(=O)O)cc3n2C[C@@H]2CCO2)c(Cl)cc1-c1ccc(F)c(OCc2ncc(C(F)(F)F)s2)n1 [Example 369, (S)-2-(2-chloro-4-(5-fluoro-6-((5-(trifluoromethyl)thiazol-2-yl)methoxy)pyridin-2-yl)-5-methylbenzyl)-1-(oxetan-2-ylmethyl)-1H-benzo[d]imidazole-6-carboxylic acid]	0.683
O=C(O)c1ccc2nc(Cc3cc(F)c(-c4cccc(OCc5ncc(C#Cc6cscn6)cc5F)n4)cc3F)n(C[C@@H]3CCO3)c2c1 [Example 292, (S)-2-(2,5-difluoro-4-(6-((3-fluoro-5-(thiazol-4-ylethynyl)pyridin-2-yl)methoxy)pyridin-2-yl)benzyl)-1-(oxetan-2-ylmethyl)-1H-benzo[d]imidazole-6-carboxylic acid]	0.499
N#Cc1csc(COc2cccc(-c3cc(F)c(Cc4nc5ccc(C(=O)O)cc5n4C[C@@H]4CCO4)cc3F)n2)n1 [Example 23, (S)-2-(4-(6-((4-cyanothiazol-2-yl)methoxy)pyridin-2-yl)-2,5-difluorobenzyl)-1-(oxetan-2-ylmethyl)-1H-benzo[d]imidazole-6-carboxylic acid]	1.43
COc1cc(C(=O)NC2(C#N)CC2)ncc1COc1cccc(-c2cc(F)c(Cc3nc4c(F)cc(C(=O)O)cc4n3C[C@@H]3CCO3)cc2F)n1 [Example 42, (S)-2-(4-(6-((6-((1-cyanocyclopropyl)carbamoyl)-4-methoxypyridin-3-yl)methoxy)pyridin-2-yl)-2,5-difluorobenzyl)-4-fluoro-1-(oxetan-2-ylmethyl)-1H-benzo[d]imidazole-6-carboxylic acid]	0.07
COc1nnc(COc2cccc(-c3cc(F)c(Cc4nc5c(F)cc(C(=O)O)cc5n4CC4(CF)CC4)c(F)c3F)n2)s1 [Example 280, 4-fluoro-1-((1-(fluoromethyl)cyclopropyl)methyl)-2-(2,3,6-trifluoro-4-(6-((5-methoxy-1,3,4-thiadiazol-2-yl)methoxy)pyridin-2-yl)benzyl)-1H-benzo[d]imidazole-6-carboxylic acid]	0.067
CNC(=O)c1cc(Cl)c(COc2cccc(-c3cc(F)c(Cc4nc5c(F)cc(C(=O)O)cc5n4CC4(CF)CC4)cc3F)n2)cn1 [Example 417, 2-(4-(6-((4-chloro-6-(methylcarbamoyl)pyridin-3-yl)methoxy)pyridin-2-yl)-2,5-difluorobenzyl)-4-fluoro-1-((1-(fluoromethyl)cyclopropyl)methyl)-1H-benzo[d]imidazole-6-carboxylic acid]	0.26
O=C(O)c1cc(F)c2nc(Cc3cc(F)c(-c4cccc(OCc5ncc(C#Cc6cncs6)cc5F)n4)cc3F)n(C[C@@H]3CCO3)c2c1 [Example 390, (S)-2-(2,5-difluoro-4-(6-((3-fluoro-5-(thiazol-5-ylethynyl)pyridin-2-yl)methoxy)pyridin-2-yl)benzyl)-4-fluoro-1-(oxetan-2-ylmethyl)-1H-benzo[d]imidazole-6-carboxylic acid]	0.235
O=C(O)c1ccc2nc(Cc3cc(F)c(-c4cccc(OCc5ccc(-c6cn([C@@H]7CCOC7)nn6)cc5F)n4)cc3F)n(C[C@@H]3CCO3)c2c1 [Example 213]	0.48
Cn1cc(-c2cnc(COc3nc(-c4cc(F)c(Cc5nc6c(F)cc(C(=O)O)cc6n5C[C@@H]5CCO5)cc4F)ccc3F)s2)cn1 [Example 98, (S)-2-(2,5-difluoro-4-(5-fluoro-6-((5-(1-methyl-1H-pyrazol-4-yl)thiazol-2-yl)methoxy)pyridin-2-yl)benzyl)-4-fluoro-1-(oxetan-2-ylmethyl)-1H-benzo[d]imidazole-6-carboxylic acid]	0.03
O=C(O)c1ccc2nc(Cc3cc(F)c(-c4cccc(OCc5ccc(-c6cnc(C7CC7)o6)cc5F)n4)cc3F)n(C[C@@H]3CCO3)c2c1 [Example 160, (S)-2-(4-(6-((4-(2-cyclopropyloxazol-5-yl)-2-fluorobenzyl)oxy)pyridin-2-yl)-2,5-difluorobenzyl)-1-(oxetan-2-ylmethyl)-1H-benzo[d]imidazole-6-carboxylic acid]	0.2
O=C(O)c1ccc2nc(Cc3cc(F)c(-c4cccc(OCc5ncc(C#CC6CCOC6)s5)n4)cc3F)n(C[C@@H]3CCO3)c2c1 (stereo partly drawn) [Example 322, 2-(2,5-difluoro-4-(6-((5-((tetrahydrofuran-3-yl)ethynyl)thiazol-2-yl)methoxy)pyridin-2-yl)benzyl)-1-(((S)-oxetan-2-yl)methyl)-1H-benzo[d]imidazole-6-carboxylic acid]	0.349
CC1(C#Cc2ccc(COc3cccc(-c4cc(F)c(Cc5nc6ccc(C(=O)O)cc6n5C[C@@H]5CCO5)cc4F)n3)c(F)c2)COC1 [Example 133, (S)-2-(2,5-difluoro-4-(6-((2-fluoro-4-((3-methyloxetan-3-yl)ethynyl)benzyl)oxy)pyridin-2-yl)benzyl)-1-(oxetan-2-ylmethyl)-1H-benzo[d]imidazole-6-carboxylic acid]	0.3
O=C(O)c1ccc2nc(Cc3cc(F)c(-c4ccc(F)c(OCc5ncc(C(F)(F)F)s5)n4)cc3F)n(C[C@@H]3CCO3)c2c1 [Example 370, (S)-2-(2,5-difluoro-4-(5-fluoro-6-((5-(trifluoromethyl)thiazol-2-yl)methoxy)pyridin-2-yl)benzyl)-1-(oxetan-2-ylmethyl)-1H-benzo[d]imidazole-6-carboxylic acid]	0.28
CNC(=O)c1cc(Cl)c(COc2cccc(-c3cc(Cl)c(Cc4nc5c(F)cc(C(=O)O)cc5n4CCOC)cc3F)n2)cn1 [Example 386, 2-(2-chloro-4-(6-((4-chloro-6-(methylcarbamoyl)pyridin-3-yl)methoxy)pyridin-2-yl)-5-fluorobenzyl)-4-fluoro-1-(2-methoxyethyl)-1H-benzo[d]imidazole-6-carboxylic acid]	0.121
O=C(O)c1ccc2nc(Cc3cc(F)c(-c4cccc(OCc5cnco5)n4)cc3F)n(C[C@@H]3CCO3)c2c1 [Example 169, (S)-2-(2,5-difluoro-4-(6-(oxazol-5-ylmethoxy)pyridin-2-yl)benzyl)-1-(oxetan-2-ylmethyl)-1H-benzo[d]imidazole-6-carboxylic acid]	11.8
Cn1cc(-c2cc(COc3cccc(-c4cc(F)c(Cc5nc6ccc(C(=O)O)cc6n5C[C@@H]5CCO5)cc4F)n3)nn2C)cn1 [Example 109, (S)-2-(4-(6-((1′,2-dimethyl-1′H,2H-[3,4′-bipyrazol]-5-yl)methoxy)pyridin-2-yl)-2,5-difluorobenzyl)-1-(oxetan-2-ylmethyl)-1H-benzo[d]imidazole-6-carboxylic acid]	0.62
Cc1cc(Cc2nc3ccc(C(=O)O)cc3n2[C@@H]2COCC2(C)C)c(Cl)cc1-c1ccc(F)c(OCc2ncc(C(C)(F)F)s2)n1 [Example 427, (S)-2-(2-chloro-4-(6-((5-(1,1-difluoroethyl)thiazol-2-yl)methoxy)-5-fluoropyridin-2-yl)-5-methylbenzyl)-1-(4,4-dimethyltetrahydrofuran-3-yl)-1H-benzo[d]imidazole-6-carboxylic acid]	1.42
